Measurements reported in patent publication US20230010803A1, “TREATMENTS FOR DIFFUSE LARGE B-CELL LYMPHOMA” (Janssen Pharmaceutica NV, priority 2021, published 2023).

Key:
non-GCB DLBCL [1] = test: Phoenix phase III randomized trial of R-CHOP with or without ibrutinib, analysed by LymphGen genetic subtype; format: in vivo, human; details: younger patients (age≤60) with N1 DLBCL (n=13)
non-GCB DLBCL [2] = details: cited from earlier work

For `C=CC(=O)N1CCC[C@@H](n2nc(-c3ccc(Oc4ccccc4)cc3)c3c(N)ncnc32)C1` [ibrutinib], the “3-year EFS” value (non-GCB DLBCL [1]) is listed as 100%, the “3-year OS” value (non-GCB DLBCL [1]) is listed as 100% and the “toxicity compared to the placebo arm” value (non-GCB DLBCL [2]; older patients on the ibrutinib arm) is listed as “significantly more toxicity”. The “toxicity of addition of ibrutinib to R-CHOP” value (non-GCB DLBCL [2]; younger patients with non-GCB DLBCL) was “did not significantly increase toxicity”.
